Results as given in PubChem BioAssay AID652212 (Johns Hopkins Ion Channel Center, 2013).
Activity calls are given as the source filed them.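 Rule for the calls: active = peak inhibition of the TASK1 potassium channel above a set limit at some dose, plus a fitted dose response; inactive = no inhibition at any dose, or no fitted curve.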

biological target: Potassium channel subfamily K member 3 (Homo sapiens) (UniProt O14649); test: inhibition of human KCNK3 channel flux – CHO cells, FluxOR thallium flux, SAR follow-up (AID 652212); settings: CHO-TASK1 cells, FluxOR thallium flux fluorescence
Sequence (O14649 whole entry, looked up): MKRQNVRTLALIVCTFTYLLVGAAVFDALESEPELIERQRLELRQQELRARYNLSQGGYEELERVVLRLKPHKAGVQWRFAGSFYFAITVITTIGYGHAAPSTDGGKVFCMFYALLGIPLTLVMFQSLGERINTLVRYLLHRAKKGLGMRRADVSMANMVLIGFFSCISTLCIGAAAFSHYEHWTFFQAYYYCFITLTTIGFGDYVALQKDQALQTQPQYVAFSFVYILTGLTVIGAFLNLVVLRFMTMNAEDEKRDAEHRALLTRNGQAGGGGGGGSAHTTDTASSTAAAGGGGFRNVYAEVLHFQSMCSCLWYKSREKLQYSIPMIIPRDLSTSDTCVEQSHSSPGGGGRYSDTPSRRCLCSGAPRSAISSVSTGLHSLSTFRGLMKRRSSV

| IC50 [nM] | Compound |
| --- | --- |
| 2 | CCOc1ccccc1C(=O)Nc1cccc(NC(=O)c2ccccc2C(F)(F)F)c1 |
| 91 | Cc1cccc(C(=O)Nc2cccc(NC(=O)c3ccccc3C)c2)c1 |
| 52 | O=C(Nc1cccc(NC(=O)c2cccc(Cl)c2)c1)c1ccccc1 |
| 29 | O=C(Nc1cccc(NC(=O)c2cccs2)c1)c1ccccc1 |
| 4 | COc1ccccc1C(=O)Nc1cccc(NC(=O)c2ccccc2OC(F)(F)F)c1 |
| 86 | O=C(Nc1cccc(NC(=O)c2ccccn2)c1)c1ccccc1 |
| 79 | O=C(Nc1cccc(NC(=O)C2CCCCC2)c1)c1ccccc1 |
| 222 | COc1ccccc1C(=O)Nc1cccc(NC(=O)c2ccccc2)c1 |
| 1 | CC(C)Oc1ccccc1C(=O)Nc1cccc(NC(=O)c2ccccc2OC(F)(F)F)c1 |
| 104 | Cc1ccccc1C(=O)Nc1cccc(NC(=O)c2ccccc2)c1 |
| 3 | Cc1cccc(C(=O)Nc2cccc(NC(=O)c3cccc(Cl)c3)c2)c1 |
| 327 | COc1cccc(C(=O)Nc2cccc(NC(=O)c3ccccc3)c2)c1 |
| 11 | CC(C)c1ccccc1C(=O)Nc1cccc(NC(=O)c2ccccc2OC(F)(F)F)c1 |
| 7 | COc1ccccc1C(=O)Nc1cccc(NC(=O)c2ccccc2C(C)C)c1 |
| 149 | Cc1cccc(C(=O)Nc2cccc(NC(=O)c3ccc(Cl)cc3)c2)c1 |
| 1330 | COc1ccc(C(=O)Nc2cccc(NC(=O)c3cccc(C)c3)c2)cc1 |
| 259 | CN(C)c1ccc(C(=O)Nc2cccc(NC(=O)c3ccccc3)c2)cc1 |
| 162 | O=C(Nc1cccc(NC(=O)c2ccsc2)c1)c1ccccc1 |

| IC50 [nM] | Compound |
| --- | --- |
| 1290 | O=C(Nc1cccc(NC(=O)c2cccnc2)c1)c1ccccc1 |
| 4 | COc1ccccc1C(=O)Nc1cccc(NC(=O)c2cccc(C)c2)c1 |
| 23 | Cc1cccc(C(=O)Nc2cccc(NC(=O)c3ccccc3Cl)c2)c1 |
| 30 | Cc1cccc(C(=O)Nc2cccc(NC(=O)c3cccc(C)c3)c2)c1 |
| 328 | Cc1cccc(C(=O)Nc2cccc(NC(=O)c3ccccc3C(C)C)c2)c1 |
| 2 | CCOc1ccccc1C(=O)Nc1cccc(NC(=O)c2ccccc2OC)c1 |
| 249 | O=C(Nc1cccc(NC(=O)c2ccncc2)c1)c1ccccc1 |
| 497 | O=C(Nc1cccc(NC(=O)c2ccccc2Cl)c1)c1ccccc1 |
| 145 | Cc1cccc(C(=O)Nc2cccc(NC(=O)c3ccc(N(C)C)cc3)c2)c1 |
| 73 | COc1ccccc1C(=O)Nc1cccc(NC(=O)c2ccccc2C)c1 |
| 31 | COc1cccc(C(=O)Nc2cccc(NC(=O)c3cccc(C)c3)c2)c1 |
| 157 | O=C(Nc1cccc(NC(=O)c2cccc(C(F)(F)F)c2)c1)c1ccccc1 |
| 130 | O=C(Nc1cccc(NC(=O)c2ccccc2C(F)(F)F)c1)c1ccccc1 |
| 143 | Cc1cccc(C(=O)Nc2cccc(NC(=O)c3ccco3)c2)c1 |
| 25 | Cc1cccc(C(=O)Nc2cccc(NC(=O)c3cccc(F)c3)c2)c1 |
| 10 | COc1ccccc1C(=O)Nc1cccc(NC(=O)c2ccccc2OC)c1 |
| 799 | O=C(Nc1cccc(NC(=O)c2ccoc2)c1)c1ccccc1 |
| 306 | O=C(Nc1cccc(NC(=O)c2ccc(F)cc2)c1)c1ccccc1 |

same assay, conditions: CHO-TASK1 cells, FluxOR thallium flux fluorescence; at 3 µM (top of the series)

| normalized flux ratio, lower = inhibition | Compound |
| --- | --- |
| inactive | Cc1ccc(C(=O)Nc2cccc(NC(=O)c3ccccc3)c2)cc1 |
| inactive | O=C(Nc1cccc(NC(=O)c2ccc(Cl)cc2)c1)c1ccccc1 |
| inactive | O=C(Nc1cccc(NC(=O)c2ccc(C(F)(F)F)cc2)c1)c1ccccc1 |
| inactive | CC(C)(C)c1ccc(C(=O)Nc2cccc(NC(=O)c3ccccc3)c2)cc1 |
